In publication PMC10012260 (ACS Infectious Diseases, 2023):
Values joined by “and” are separate entries in the source; they are usually repeats but may differ in a detail not shown here. Equal entries are not always repeated. Where two headings read alike, the source gives them in different places.

What was measured:
[1] = target: NDV-HN of three NDV strains (two NDV La Sota and the velogenic strain APMV-1/chicken/Egypt/13VIR-5009-2/2013) (Newcastle disease virus, UniProt P35743); test: biochemical
Sequence of NDV-HN of three NDV strains (two NDV La Sota and the velogenic strain APMV-1/chicken/Egypt/13VIR-5009-2/2013) (P35743 whole entry, looked up): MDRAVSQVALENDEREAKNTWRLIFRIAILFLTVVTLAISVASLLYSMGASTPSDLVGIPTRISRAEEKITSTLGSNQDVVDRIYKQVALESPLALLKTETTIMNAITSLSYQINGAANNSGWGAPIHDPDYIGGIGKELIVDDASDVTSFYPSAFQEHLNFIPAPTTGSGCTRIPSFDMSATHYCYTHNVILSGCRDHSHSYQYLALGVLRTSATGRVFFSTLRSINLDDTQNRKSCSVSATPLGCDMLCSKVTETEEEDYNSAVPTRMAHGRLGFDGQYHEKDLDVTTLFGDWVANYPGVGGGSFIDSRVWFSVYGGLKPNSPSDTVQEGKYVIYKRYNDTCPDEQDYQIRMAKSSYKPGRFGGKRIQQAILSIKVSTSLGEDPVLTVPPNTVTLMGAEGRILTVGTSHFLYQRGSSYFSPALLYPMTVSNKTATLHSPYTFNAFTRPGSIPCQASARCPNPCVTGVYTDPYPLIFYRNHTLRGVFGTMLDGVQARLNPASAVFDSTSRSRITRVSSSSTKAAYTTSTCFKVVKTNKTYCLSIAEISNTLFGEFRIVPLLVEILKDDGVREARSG

in vitro = conditions: African green monkey
NDV La Sota [2] = test: microbe, parasite or virus in culture; type: cell-based, Newcastle disease virus; conditions: for IC50: avian paramyxovirus 1, Vero, 48 h, read-out: plaque reduction assay (IC50, μM)
NDV La Sota [3] = test: microbe, parasite or virus in culture; type: cell-based, Newcastle disease virus; conditions: avian paramyxovirus 1, Vero, 24 h, read-out: viral yield reduction assay 24 h (IC50, μM)
NDV La Sota [4] = test: microbe, parasite or virus in culture; type: cell-based, Newcastle disease virus; conditions: avian paramyxovirus 1, Vero, 48 h, read-out: Inhibition of viral release (IC50, μM)
NDV La Sota [5] = test: microbe, parasite or virus in culture; type: cell-based, Newcastle disease virus; conditions: avian paramyxovirus 1, Vero, read-out: Inhibition of viral binding (IC50, μM)
hPIV3-HN = conditions: read-out: IC50 hPIV3-HN; cited from earlier work
La Sota Clone 30 NDV-HN = La Sota Clone 30 NDV-HN (Newcastle disease virus, UniProt P35743); type: biochemical
Sequence of La Sota Clone 30 NDV-HN (P35743 whole entry, looked up): as above

## CC(=O)N[C@H]1[C@H]([C@H](O)[C@H](O)CO)OC(C(=O)O)=C[C@@H]1O [Compound 1, N-acetyl-2,3-dehydro-2-deoxyneuraminic acid, reference compound]
[1]
  IC50: 6.2 to 14 µM
In vitro
  CC50: > 2500 µM
NDV La Sota [2]
  selectivity index (CC50/IC50): >96
  IC50: 26 ± 13 µM
NDV La Sota [3]
  IC50: 1.6 ± 0.6 µM
NDV La Sota [4]
  IC50: 15 ± 8 µM
NDV La Sota [5]
  IC50: > 100 µM

## CC(=O)N[C@H]1[C@H]([C@H](O)[C@H](O)CO)OC(C(=O)O)=C[C@@H]1N=C(N)N [Compound 2, Zanamivir, reference compound]
[1]
  IC50: 23 to 70 µM
In vitro
  CC50: > 2500 µM
NDV La Sota [2]
  selectivity index (CC50/IC50): >83
  IC50: 30 ± 7 µM
NDV La Sota [4]
  IC50: 29 ± 10 µM
NDV La Sota [5]
  IC50: > 100 µM

## CC(C)C(=O)N[C@H]1[C@H]([C@H](O)[C@H](O)CO)OC(C(=O)O)=C[C@@H]1N=[N+]=[N-] [Compound 4]
hPIV3-HN
  IC50: 20 µM and 21.5 µM

## O=C(O)C1=C[C@H](O)[C@@H](NC(=O)C(F)(F)F)[C@H]([C@H](O)[C@H](O)CO)O1 [Compound 5, N-trifluoroacetyl-2,3-dehydro-2-deoxyneuraminic acid, reference compound]
[1]
  IC50: 6.2 to 14 µM
In vitro
  CC50: > 2500 µM
NDV La Sota [2]
  selectivity index (CC50/IC50): >714
  IC50: 3.5 ± 0.9 µM
NDV La Sota [3]
  IC50: 0.37 ± 0.08 µM
NDV La Sota [4]
  IC50: 7.7 ± 2.9 µM
NDV La Sota [5]
  IC50: > 100 µM

## [N-]=[N+]=N[C@H]1C=C(C(=O)O)O[C@@H]([C@H](O)[C@H](O)CO)[C@@H]1NC(=O)C(F)(F)F [Compound 9]
[1]
  IC50: ~0.03 µM
In vitro
  CC50: > 2500 µM
NDV La Sota [2]
  IC50: 0.17 ± 0.06 µM
NDV La Sota [3]
  IC50: 0.04 ± 0.01 µM
NDV La Sota [4]
  IC50: 0.47 µM
NDV La Sota [5]
  IC50: 23 µM

## [N-]=[N+]=N[C@H]1C=C(C(=O)O)O[C@@H]([C@H](O)[C@H](O)CO)[C@@H]1NC(=O)C(F)(F)C(F)(F)C(F)(F)F [Compound 10]
[1]
  IC50: ~0.03 µM
In vitro
  CC50: > 2500 µM
NDV La Sota [2]
  selectivity index (CC50/IC50): >41,667
  IC50: 0.06 ± 0.02 µM
NDV La Sota [3]
  IC50: 0.04 ± 0.01 µM
NDV La Sota [4]
  IC50: 0.09 µM
NDV La Sota [5]
  IC50: 4 µM

## O=C(O)C1=C[C@H](NS(=O)(=O)c2ccccc2)[C@@H](NC(=O)C(F)(F)F)[C@H]([C@H](O)[C@H](O)CO)O1 [Compound 19, 2,6-Anhydro-4-(phenylsulfonamido)-3,4,5-trideoxy-5-(2,2,2-trifluoroacetamido)-D-glycero-D-galacto-non-2-enoic Acid]
La Sota Clone 30 NDV-HN
  increase in potency versus methylsulfonamido derivative 14: 10 fold

## Cc1ccc(C(=O)N[C@H]2C=C(C(=O)O)O[C@@H]([C@H](O)[C@H](O)CO)[C@@H]2NC(=O)C(F)(F)F)cc1 [Compound 23, 2,6-Anhydro-4-(4-methylbenzamido)-3,4,5-trideoxy-5-(2,2,2-trifluoroacetamido)-D-glycero-D-galacto-non-2-enoic Acid]
La Sota Clone 30 NDV-HN
  increase in inhibitory activity versus p-toluenesulfonamido 12: 3 fold
  times more active than FANA 5: 40 times
[1]
  IC50: ≤ 0.2 µM
In vitro
  CC50: > 2500 µM
NDV La Sota [2]
  IC50: 0.79 ± 0.57 µM
NDV La Sota [3]
  IC50: 0.05 ± 0.02 µM
NDV La Sota [4]
  IC50: 0.13 µM
NDV La Sota [5]
  IC50: 24 µM

## O=C(O)C1=C[C@H](NC(=O)C(F)(F)F)[C@@H](NC(=O)C(F)(F)F)[C@H]([C@H](O)[C@H](O)CO)O1 [Compound 24, 2,6-Anhydro-3,4,5-trideoxy-4,5-di-(2,2,2-trifluoroacetamido)-D-glycero-D-galacto-non-2-enoic Acid]
[1]
  IC50: ≤ 0.2 µM
In vitro
  CC50: > 2500 µM
NDV La Sota [2]
  IC50: 0.08 ± 0.01 µM
NDV La Sota [3]
  IC50: 0.03 ± 0.01 µM
NDV La Sota [4]
  IC50: 0.17 µM
NDV La Sota [5]
  IC50: 15 µM
